# Measured values taken from ChEMBL document CHEMBL1148967, “Correction of the structure of a new sesquiterpene from Cistus creticus ssp. creticus” (J Nat Prod, 2004).
# The source made the active and inactive calls. No cut-off for these calls is given here.
# What was measured:
# [1] = test system: NCI-H460; test: Cytotoxicity against human H460 cells assessed as reduction in growth rate at 100 uM after 48 hrs; assay type: functional; design: scale not given: the % may be the effect or the level left
# [2] = test system: PBMC; test: Cytotoxicity against human PBMC assessed as reduction in growth rate at 100 uM after 48 hrs; assay type: cell-based
# [3] = test system: MCF7; test: Cytotoxicity against human MCF7 cells assessed as reduction in growth rate at 100 uM after 48 hrs; assay type: functional; design: scale not given: the % may be the effect or the level left
# [4] = test system: SF-268; test: Cytotoxicity against human SF268 cells assessed as reduction in growth rate at 100 uM after 48 hrs; assay type: functional, cell-based
smiles,measurement,setting,value
C=C(C)[C@H]1CC=C2CCC[C@@H](C)[C@]2(C)C1,Activity,[1],80.8%
same,Activity,[2],Non-toxic
same,Activity,[3],93.6%
same,Activity,[4],inactive
